The nature of the test: Inhibition of T-cell proliferation was determined by a human T-cell assay.
In turn, `COc1ccccc1C(=O)NC[C@]1(c2ccccc2)CC[C@H](NC(=O)Cc2ccccc2)CC1` [2-Methoxy-N-(1-phenyl-4-phenylacetylamino-cyclohexylmethyl)-benzamide] yielded an IC50 of 609 nM. The result for `COc1ccccc1C(=O)NCC1(c2ccccc2)CCC(=O)CC1` [2-Methoxy-N-(4-oxo-1-phenyl-cyclohexylmethyl)-benzamide] reads 1200 nM; that for `COc1ccccc1C(=O)NC[C@]1(c2ccccc2)CC[C@H](NC(=O)CCc2ccccc2)CC1` [2-Methoxy-N-[1-phenyl-4-(3-phenyl-propionylamino)-cyclohexylmethyl]-benzamide], 200 nM; that for `COc1ccccc1C(=O)NC[C@]1(c2ccccc2)CC[C@@H](OC(=O)NCCO)CC1` [(2-Hydroxy-ethyl)-carbamic acid 4-[(2-methoxy-benzoylamino)-methyl]-4-phenyl-cyclohexyl ester], 1790 nM. On to `COCCNC(=O)O[C@H]1CC[C@@](CNC(=O)c2ccccc2OC)(c2ccccc2)CC1` [(2-Methoxy-ethyl)-carbamic acid 4-[(2-methoxy-benzoylamino)-methyl]-4-phenyl-cyclohexyl ester], for which the half-inhibitory concentration (IC50) worked out at 1000 nM.

As to `C=C(C)CNC(=O)O[C@H]1CC[C@@](CNC(=O)c2ccccc2OC)(c2ccccc2)CC1` [(2-Methyl-allyl)-carbamic acid 4-[(2-methoxy-benzoylamino)-methyl]-4-phenyl-cyclohexyl ester], the IC50 was found to be 688 nM. The value for `C=CCNC(=O)O[C@H]1CC[C@@](CNC(=O)c2ccccc2OC)(c2ccccc2)CC1` [Allyl-carbamic acid 4-[(2-methoxy-benzoylamino)-methyl]-4-phenyl-cyclohexyl ester] was 361 nM; that for `C=CCNC(=O)O[C@H]1CC[C@](CNC(=O)c2ccccc2OC)(c2ccccc2)CC1` [Allyl-carbamic acid 4-[(2-methoxy-benzoylamino)-methyl]-4-phenyl-cyclohexyl ester] was 1100 nM. The result for `C=CCN(C)C(=O)O[C@H]1CC[C@](CNC(=O)c2ccccc2OC)(c2ccccc2)CC1` [Allyl-methyl-carbamic acid 4-[(2-methoxy-benzoylamino)-methyl]-4-phenyl-cyclohexyl ester] reads 659 nM; that for `COc1ccccc1C(=O)NC[C@]1(c2ccccc2)CC[C@H](OC(=O)NCc2ccccc2)CC1` [Benzyl-carbamic acid 4-[(2-methoxy-benzoylamino)-methyl]-4-phenyl-cyclohexyl ester], 915 nM; that for `CCCCNC(=O)O[C@H]1CC[C@@](CNC(=O)c2ccccc2OC)(c2ccccc2)CC1` [Butyl-carbamic acid 4-[(2-methoxy-benzoylamino)-methyl]-4-phenyl-cyclohexyl ester], 688 nM. The value for `CCCCNC(=O)O[C@H]1CC[C@](CNC(=O)c2ccccc2OC)(c2ccccc2)CC1` [Butyl-carbamic acid 4-[(2-methoxy-benzoylamino)-methyl]-4-phenyl-cyclohexyl ester] was 320 nM; that for `COc1ccccc1C(=O)NC[C@]1(c2ccccc2)CC[C@H](OC(N)=O)CC1` [Carbamic acid 4-[(2-methoxy-benzoylamino)-methyl]-4-phenyl-cyclohexyl ester] was 519 nM.

Take `COc1ccccc1C(=O)NC[C@]1(c2ccccc2)CC[C@@H](OC(=O)NC(C)C)CC1` [Isopropyl-carbamic acid 4-[(2-methoxy-benzoylamino)-methyl]-4-phenyl-cyclohexyl ester]: half-maximal inhibition (IC50) was put at 222 nM. In turn, `COc1ccccc1C(=O)NC[C@]1(c2ccccc2)CC[C@H](OC(=O)NC(C)C)CC1` [Isopropyl-carbamic acid 4-[(2-methoxy-benzoylamino)-methyl]-4-phenyl-cyclohexyl ester] had a 50% inhibitory concentration (IC50) of 892 nM. The value for `CNC(=O)O[C@H]1CC[C@@](CNC(=O)c2ccccc2OC)(c2ccccc2)CC1` [Methyl-carbamic acid 4-[(2-methoxy-benzoylamino)-methyl]-4-phenyl-cyclohexyl ester] was 195 nM. The result for `CNC(=O)O[C@H]1CC[C@](CNC(=O)c2ccccc2OC)(c2ccccc2)CC1` [Methyl-carbamic acid 4-[(2-methoxy-benzoylamino)-methyl]-4-phenyl-cyclohexyl ester] reads 1260 nM. The result for `COc1ccccc1C(=O)NC[C@]1(c2ccccc2)CC[C@H](NC(=O)c2ccccc2)CC1` [N-(4-Benzoylamino-1-phenyl-cyclohexylmethyl)-2-methoxy-benzamide] reads 154 nM; that for `C=CCNC(=O)N[C@H]1CC[C@@](CNC(=O)c2ccccc2OC)(c2ccccc2)CC1` [N-[4-(3-Allyl-ureido)-1-phenyl-cyclohexylmethyl]-2-methoxy-benzamide], 676 nM. Compound `C=CCNC(=O)N[C@H]1CC[C@](CNC(=O)c2ccccc2OC)(c2ccccc2)CC1` [N-[4-(3-Allyl-ureido)-1-phenyl-cyclohexylmethyl]-2-methoxy-benzamide] registered an IC50 of 430 nM. The result for `C/C=C/C(=O)N[C@H]1CC[C@](CNC(=O)c2ccccc2OC)(c2ccccc2)CC1` [N-[4-((E)-But-2-enoylamino)-1-phenyl-cyclohexylmethyl]-2-methoxy-benzamide] reads 399 nM; that for `COc1ccccc1C(=O)NC[C@]1(c2ccccc2)CC[C@H](OC(=O)Nc2ccccc2)CC1` [Phenyl-carbamic acid 4-[(2-methoxy-benzoylamino)-methyl]-4-phenyl-cyclohexyl ester], 237 nM; that for `CCCNC(=O)O[C@H]1CC[C@@](CNC(=O)c2ccccc2OC)(c2ccccc2)CC1` [Propyl-carbamic acid 4-[(2-methoxy-benzoylamino)-methyl]-4-phenyl-cyclohexyl ester], 273 nM. Compound `C=CCOC(=O)N[C@H]1CC[C@@](CNC(=O)c2ccccc2OC)(c2ccccc2)CC1` [{4-[(2-Methoxy-benzoylamino)-methyl]-4-phenyl-cyclohexyl}-carbamic acid allyl ester] yielded an IC50 of 539 nM. The result for `C=CCOC(=O)N[C@H]1CC[C@](CNC(=O)c2ccccc2OC)(c2ccccc2)CC1` [{4-[(2-Methoxy-benzoylamino)-methyl]-4-phenyl-cyclohexyl}-carbamic acid allyl ester] reads 354 nM; that for `COC(=O)N[C@H]1CC[C@@](CNC(=O)c2ccccc2OC)(c2ccccc2)CC1` [{4-[(2-Methoxy-benzoylamino)-methyl]-4-phenyl-cyclohexyl}-carbamic acid methyl ester], 1060 nM.

Take `COc1ccccc1C(=O)NC[C@]1(c2ccccc2)CC[C@@H](NC(=O)SC)CC1` [{4-[(2-Methoxy-benzoylamino)-methyl]-4-phenyl-cyclohexyl}-thiocarbamic acid methyl ester]: inhibition was half-maximal at 618 nM (IC50).
